# Test system: L. monocytogenes
# Test: Microbial kill on L. monocytogenes inoculated lettuce in pouches
# Type: cell-based
# Conditions: 5 days post inoculation and packaging
# Description: To verify its efficacy against pathogenic bacteria, pouch samples were sent to Institute of Food Safety and Health (IFSH) for a microbial study where they were filled with 30 grams of lettuce that was inoculated with the L. monocytogenes with an initial count of 7.6E+06 CFU/g. The pouches were the same structure and size as Produce Packaging Example 1. The pouches were exposed to 3 s or 5 s of 254 nm UV radiation and analyzed for the microbial kill at 1 and 5 days. […] The pouches containing the ClO2 additive were either pre humidified to 80% RH or left unconditioned. The moisture required for the chlorine dioxide production in the dry samples came from the lettuce. It was observed that chlorine dioxide was able to attain 4-5 log kill in 5 days post inoculation and packaging.
smiles,measurement,value
[O][Cl+][O-] [chlorine dioxide],log kill of L. monocytogenes,4-5 log

# Reference: patent US11590472B2, “Methods and compositions for on-demand release of ClO2 gas from UV-activated chlorite ion” (Wisconsin Alumni Research Foundation, priority 2015, dated 2023)
